Here are results for three molecules from patent US5605929A, “Methods and compositions for inhibiting 5α-reductase activity” (priority 1995, dated 1997).

Entries after “also recorded” stand apart in the source; their conditions may differ. A value given as a limit tells only on which side of the number the result lay.

Data set [1] relates to PC-3. Put plainly: 5α-DHT formation from [3H]testosterone by PC-3 cells. The class given is cell-based, human.
Data set [2] deals with 17β-steroid dehydrogenase. Put plainly: 4-Androstenedione formation from [3H]testosterone by PC-3 cells (17β-steroid dehydrogenase). The class given is cell-based, human.
In data set [3] the test system is hamster flank organ. Put plainly: Flank organ, castrated immature male hamsters, topical treatment. The class given is in vivo, Syrian golden hamster. How it is done: One to two weeks after castration, the hair on the lower back of each animal was clipped with an electric hair clipper and then shaved weekly to expose the flank organs. The animals were divided into 5 animals/treatment group. A treatment solution (5 μl) was applied topically to the right flank organ once a day using a Pipetteman and a polypropylene disposable tip. Unless specified the left flank organ was not treated. The treatment solution contained either (a) ethanol alone (vehicle and control), (b) an androgen (T or 5α-DHT), (c) a fatty acid, or (d) a combination of an androgen and a fatty acid. The flank organ was wiped with an alcohol pad to remove residual compound before each treatment. […] The flank organs, both the treated and untreated sides, were evaluated with methods to be described below to determine the effect of these treatments of the growth of the pigmented macules and the sebaceous glands. The body weight of each animal was recorded before and after treatment.
The data are presented as mean ± standard deviation. […]

For data set [4], the system named is Human Prostatic Cancer Cells. Put plainly: Cell morphology during 2 hour incubation. The class given is cell-based.
In data set [5] the target is T1, 5α-Reductase of Rat Liver Microsomes (Rattus norvegicus, UniProt P24008).
T1 sequence (P24008 1-259): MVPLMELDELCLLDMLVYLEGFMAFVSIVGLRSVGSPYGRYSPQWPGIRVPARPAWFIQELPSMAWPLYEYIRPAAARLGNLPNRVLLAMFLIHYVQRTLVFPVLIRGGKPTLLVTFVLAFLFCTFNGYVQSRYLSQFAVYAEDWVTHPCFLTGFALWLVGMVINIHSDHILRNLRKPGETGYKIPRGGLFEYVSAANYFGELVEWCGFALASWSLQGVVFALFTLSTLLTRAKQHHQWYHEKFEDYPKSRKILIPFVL
Put plainly: biochemical.

Data set [6] concerns 5α-reductase / prostate. Particulars: cited from earlier work.
Data set [7] deals with prostate. Particulars: dog, in vivo; cited from earlier work.
Data set [8] relates to scalp baldness. As to conditions: topical to scalp; cited from earlier work.
In data set [9] the test system is rat pituitary cultures. Particulars: cited from earlier work.
In data set [10] the target is T1, 5α-Reductase of Rat Liver Microsomes. Description: [3H]4-MA binding assay, rat liver microsomes (tea catechins). In short, it runs like this:
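Microsomes from adult female Sprague-Dawley rat liver or Rat-1A cells expressing human 5α-reductase, 25 μg protein per reaction. Incubation 30–60 min at 0 °C; microsome-bound [3H]4-MA collected on glass-fibre filters and counted. Duplicate or triplicate determinations, values based on reaction rate.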
In general terms: Liver microsomes are vesicles of endoplasmic reticulum, rich in cytochrome P450 enzymes.

Data set [11] has as its target T2, human 5α-reductase isozyme type 1 (Homo sapiens, UniProt P18405).
T2 construct: expressed in transfected cells; host or cells: Rat-1A cells infected with pMV7 retrovirus; microsomes of these cells
T2 sequence (P18405 1-259): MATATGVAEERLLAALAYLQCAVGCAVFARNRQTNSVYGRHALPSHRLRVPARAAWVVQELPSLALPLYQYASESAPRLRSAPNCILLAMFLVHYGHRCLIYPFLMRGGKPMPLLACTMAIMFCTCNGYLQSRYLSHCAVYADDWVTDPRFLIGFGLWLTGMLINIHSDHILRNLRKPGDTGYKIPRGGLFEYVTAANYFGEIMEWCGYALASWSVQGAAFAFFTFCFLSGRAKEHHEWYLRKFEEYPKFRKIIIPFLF
Description: [3H]4-MA binding, human type 1 isozyme expressed in Rat-1A cells. Particulars: read-out: % Inhibition of [^3 H]4-MA binding. The text has this:
(§1) The cDNAs for the human type 1 and 2 5α-reductases were isolated from human prostate λZAP II™ cDNA libraries using the published sequence of the 5α-reductases, PCR™ and standard library screening techniques (Sambrook et al., 1989). The type 1 and 2 cDNAs correspond to nucleotides 31-870 and 28-829, respectively, of the published sequences for these 5α-reductases (Anderson and Russell, 1990; Anderson et al., 1991). The type 1 and 2 cDNAs were subcloned into the retroviral expression vector pMV7 (Kirschmeier et al., 1988) and high titer stocks of virus containing the type 1 and 2 cDNAs were generated using the packaging cells BOSC 23 293 (Kirschmeier et al., 1988). Rat.-1A cells (Pear et al., 1993) were infected with virus (Topp, 1981) and cells containing integrated retrovirus were selected for G418-SO4 resistance, (Brown and Scott, 1987).
(§2) Microsomes were prepared as described previously (Liang and Liao, 1992) from the liver of adult Sprague-Dawley female rats or Rat-1A cells expressing a specific type of human 5α-reductase. […] The data presented was based on the rate of reaction.
(§3) [^3 H]4-MA binding assay were described in detail previously (Liang and Liao, 1992; Liang et al., 1983). […] The reaction was started by the addition of 25 μl of microsomes (25 μg protein). After 30-60 min incubation at 0° C., the [^3 H]4-MA bound to microsomes was collected on a Whatman GF/F glass fiber, washed and radioactivity determined (Liang and Liao, 1992).

For data set [12], the target named is T3, human 5α-reductase isozyme type 2 (Homo sapiens, UniProt P31213).
T3 construct: expressed in transfected cells; host or cells: Rat-1A cells infected with pMV7 retrovirus; microsomes of these cells
T3 sequence (P31213 1-254): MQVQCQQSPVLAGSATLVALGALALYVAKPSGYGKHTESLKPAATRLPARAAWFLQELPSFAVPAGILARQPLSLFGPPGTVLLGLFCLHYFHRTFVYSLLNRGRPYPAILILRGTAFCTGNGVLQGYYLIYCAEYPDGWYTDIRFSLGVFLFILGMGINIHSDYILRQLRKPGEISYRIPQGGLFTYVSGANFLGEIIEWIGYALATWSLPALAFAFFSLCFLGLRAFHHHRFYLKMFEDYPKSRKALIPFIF
Description: [3H]4-MA binding, human type 2 isozyme expressed in Rat-1A cells. As to conditions: read-out: % Inhibition of [^3 H]4-MA binding.
From the text: as §1, §2, §3

The target of data set [13] is T2, human 5α-reductase isozyme type 1. Description: 4-[14C]testosterone reduction, human type 1 isozyme. The class given is biochemical.
From the text: as §1, §2
(§4) The reaction was started by the addition of 25 μl of microsomes (25 μg protein). The mixture was incubated at 37° for 30-60 min and stopped by addition of 0.5 ml of ethyl acetate and mixing for 1 min. The organic solvent extract was removed under vacuum.

Data set [14] has as its target T3, human 5α-reductase isozyme type 2. Put plainly: 4-[14C]testosterone reduction, human type 2 isozyme. The class given is biochemical.
From the text: as §1, §2, §4

Data set [15] can be described thus: NADPH oxidation in presence of microsomes.
Data set [16] concerns prostate and preputial organ. Description: Catechins ip 7 days, large rats. Particulars: 15 mg ip/day, 7 days. The class given is in vivo, rat. How it is done:
Male Sprague Dawley rats, 172±20 g body weight, were used. Each group had 5 rats. […] The control rats received 0.3 ml of 30% ethanol.

The subject of data set [17] is androgen-dependent organs. It counts as in vivo, rat. How it is done:
The control rats were injected with 0.3 ml of 30% ethanol.

For data set [18], the system named is type 1 5α-reductase. It counts as biochemical. The procedure: as §3, §4
In data set [19] the target is Soybean lipoxygenase (Glycine max, UniProt P08170). As to conditions: cited from earlier work.
The mark [20] stands for this setting: read-out: % Inhibition of [^3 H]4-MA binding.
Setting [21] is: read-out: % Inhibition of 5α-reduction.

The term inhibition denotes the share of the control response that was lost under treatment. What is called Ki is the dissociation constant of the complex between target and ligand, obtained from inhibition or displacement. Low values mean a stronger hold on the target, high ones a looser hold on the target. In general, IC50 refers to the point on the concentration scale where inhibition reaches its midpoint.

Chain of Soybean lipoxygenase (P08170 whole entry): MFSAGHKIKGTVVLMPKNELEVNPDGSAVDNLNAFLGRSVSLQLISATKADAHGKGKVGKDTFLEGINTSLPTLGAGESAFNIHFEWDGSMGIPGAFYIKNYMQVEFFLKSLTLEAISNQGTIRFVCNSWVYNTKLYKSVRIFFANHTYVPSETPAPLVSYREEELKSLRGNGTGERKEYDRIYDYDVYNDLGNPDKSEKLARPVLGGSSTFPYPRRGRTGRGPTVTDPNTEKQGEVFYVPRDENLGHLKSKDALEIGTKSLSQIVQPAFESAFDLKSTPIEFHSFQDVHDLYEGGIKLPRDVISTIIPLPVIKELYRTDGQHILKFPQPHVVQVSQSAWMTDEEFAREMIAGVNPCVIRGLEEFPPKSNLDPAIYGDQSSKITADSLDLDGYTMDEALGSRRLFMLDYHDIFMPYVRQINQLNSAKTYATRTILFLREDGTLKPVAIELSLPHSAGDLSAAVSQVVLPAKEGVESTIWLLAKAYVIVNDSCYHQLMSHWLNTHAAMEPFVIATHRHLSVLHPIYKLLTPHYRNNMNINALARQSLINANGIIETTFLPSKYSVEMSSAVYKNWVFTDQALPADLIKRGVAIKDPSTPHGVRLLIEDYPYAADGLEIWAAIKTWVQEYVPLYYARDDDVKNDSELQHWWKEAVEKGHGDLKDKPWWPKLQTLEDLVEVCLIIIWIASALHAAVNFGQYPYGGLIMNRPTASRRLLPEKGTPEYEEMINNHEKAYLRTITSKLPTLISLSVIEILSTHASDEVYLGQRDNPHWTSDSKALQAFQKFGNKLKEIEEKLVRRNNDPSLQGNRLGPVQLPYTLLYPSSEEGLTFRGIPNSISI

As for `CCCCCCCCCCCCCCCCCC(=O)O` [Stearic acid], the “effect on 5α-reductase reduction” value in [1] (5 to 20 μM, words) is on record as “did not affect”. In addition, the activity at 5 µM in data set [1] (Homo sapiens, PC-3, 5 μM, read-out: 5α-DHT formed (% of control)) came out at 123 ± 2%. Also, in data set [1] (Homo sapiens, PC-3, 20 μM, read-out: 5α-DHT formed (% of control)), the activity at 20 µM turned out to be 121 ± 5%. The “4-Androstendione formed (% of control)” value is reported as 103 ± 2 % of control in data set [2] (5 μM) and 106 ± 5 % of control in data set [2] (20 μM). In data set [2] (words), the “effect on metabolism of testosterone to 4-androstenedione (17β-steroid dehydrogenase)” value was “did not affect”. Further, the “Pigmented Macule, Untreated (L)” value in data set [3] (Table 4, 1 mg fatty acid alone, 18 days) worked out at 4.4 ± 0.4 mm^2; in data set [3] (Table 4, 2 mg fatty acid alone, 18 days), 4.6 ± 1.4 mm^2; in [3] (Table 4, T 0.5 μg + 1 mg fatty acid), 4.3 ± 0.6 mm^2; in data set [3] (Table 4, T 0.5 μg + 2 mg fatty acid) it was 4.2 ± 0.4 mm^2. Also, the “significance vs T alone” value in data set [3] (Table 4, T + 1 mg fatty acid) is “N.S”; in [3] (Table 4, T + 2 mg fatty acid), “N.S”. In [3] (hamster, in vivo), the “inhibition of T-induced growth of pigmented macule” value is listed as “did not inhibit”. Besides, in data set [4], the “visible change in cell morphology” value is “did not produce any visible”. Besides, the inhibition at 10 µM was < 10% in data set [5] (read-out: % Inhibition of [^3 H]4-MA binding, Table 1, 10 μM) and < 10% in data set [5] (read-out: % Inhibition of [^3 H]4-MA binding, Table 2, 10 μM). Further, the inhibition at 40 µM in data set [5] (read-out: % Inhibition of [^3 H]4-MA binding, Table 1, 40 μM) was < 10%; in data set [5] (read-out: % Inhibition of [^3 H]4-MA binding, Table 2, 40 μM), < 10%. Also, the inhibition at 200 µM in data set [5] (read-out: % Inhibition of [^3 H]4-MA binding, Table 1, 200 μM) was < 10%; in data set [5] (read-out: % Inhibition of [^3 H]4-MA binding, Table 2, 200 μM), < 10%.

For the molecule `CCN(CC)C(=O)[C@H]1CC[C@H]2[C@@H]3CC[C@H]4N(C)C(=O)CC[C@]4(C)[C@H]3CC[C@]12C` [4-MA, 17β-N,N-diethylcarbamoyl-4-methyl-4-aza-5α-androstan-3-one], in [6] (castrated rats + testosterone), the “effect on prostate growth” value was “attenuated the growth of the prostate”. The “effect on prostatic 5α-DHT” value in data set [6] (intact or castrated male rats given testosterone propionate) was “decreasing the prostatic concentration of 5α-DHT”. In data set [7], the “prostate size” value is reported as “the prostate size decreases”. Besides, in data set [8], the “baldness” value is “prevented the baldness; also recorded: effective in preventing male pattern baldness”. Also, the “testosterone inhibition of LH release” value in data set [9] was “did not affect testosterone inhibition of LH release”. The molecule further gave a Ki in data set [5] of 0.013 µM.

Consider `O=C(O[C@@H]1Cc2c(O)cc(O)cc2O[C@@H]1c1ccc(O)c(O)c1)c1cc(O)c(O)c(O)c1` [ECG, (-)Epicatechin-3-gallate], for which, in data set [10] (setting [20]), the inhibition at 5 µM stood at 25%, the inhibition at 10 µM amounted to 44%, the inhibition at 20 µM amounted to 74% and the inhibition at 40 µM stood at 88%. Besides, the inhibition at 200 µM in [10] (setting [20]) is 92%. The IC50 in data set [10] (type 1 5α-reductase of rat liver microsomes, read-out: IC50) amounted to 12 µM. In data set [11], the inhibition at 1 µM came to 34%, the inhibition at 3 µM came out at 47%, the inhibition at 10 µM was found to be 79% and the inhibition at 30 µM came out at 87%. In data set [11], the inhibition at 100 µM came out at 79%. Moreover, in data set [12], the inhibition at 1 µM stood at 17%, the inhibition at 3 µM is 17%, the inhibition at 10 µM was determined as 45% and the inhibition at 30 µM was found to be 76%. Besides, in data set [12], the inhibition at 100 µM turned out to be 80%. For the same molecule, in data set [13] (enzymatic assay), the half-maximal inhibitory concentration (IC50) was ~10 µM. Besides, in [13] (setting [21]), the inhibition at 1 µM worked out at 20%, the inhibition at 3 µM worked out at 27%, the inhibition at 10 µM was found to be 47% and the inhibition at 30 µM was 90%. In addition, the inhibition at 100 µM in [13] (setting [21]) was 99%. For the same molecule, the “activity on type 2 isozyme” value in data set [14] (enzymatic assay, concentrations below 30 μM for ECG/EGCG) was “did not inhibit the Type 2 isozyme”. Besides, in data set [14] (setting [21]), the inhibition at 1 µM was < 10%, the inhibition at 3 µM is < 10%, the inhibition at 10 µM was < 10% and the inhibition at 30 µM is < 10%. In addition, in [14] (setting [21]), the inhibition at 100 µM worked out at 82%. The NADPH oxidation entry in [15] is given as “did not induce NADPH oxidation”. In [16], the “effect on the body weights” value is on record as “less than 10%”. The “effect on all organs examined” value in data set [17] (10 and 15 mg per day) was “less than 20%”. Besides, the “effect on the body weight” value in [17] (up to 15 mg per day) is on record as “No significant effect”. The “competition with testosterone or NADPH” value in data set [18] is reported as “did not appear to compete with testosterone or NADPH”. Besides, the concentration for half-maximal inhibition (IC50) in [19] is 18 µM.
